Target: T1, HEK-Blue-hTLR8 cells (Homo sapiens, UniProt Q9NR97)
T1 construct: expressed in transfected cells; host or cells: HEK-Blue-hTLR8 cells (HEK293-derived reporter line)
T1 sequence (Q9NR97 27-1041): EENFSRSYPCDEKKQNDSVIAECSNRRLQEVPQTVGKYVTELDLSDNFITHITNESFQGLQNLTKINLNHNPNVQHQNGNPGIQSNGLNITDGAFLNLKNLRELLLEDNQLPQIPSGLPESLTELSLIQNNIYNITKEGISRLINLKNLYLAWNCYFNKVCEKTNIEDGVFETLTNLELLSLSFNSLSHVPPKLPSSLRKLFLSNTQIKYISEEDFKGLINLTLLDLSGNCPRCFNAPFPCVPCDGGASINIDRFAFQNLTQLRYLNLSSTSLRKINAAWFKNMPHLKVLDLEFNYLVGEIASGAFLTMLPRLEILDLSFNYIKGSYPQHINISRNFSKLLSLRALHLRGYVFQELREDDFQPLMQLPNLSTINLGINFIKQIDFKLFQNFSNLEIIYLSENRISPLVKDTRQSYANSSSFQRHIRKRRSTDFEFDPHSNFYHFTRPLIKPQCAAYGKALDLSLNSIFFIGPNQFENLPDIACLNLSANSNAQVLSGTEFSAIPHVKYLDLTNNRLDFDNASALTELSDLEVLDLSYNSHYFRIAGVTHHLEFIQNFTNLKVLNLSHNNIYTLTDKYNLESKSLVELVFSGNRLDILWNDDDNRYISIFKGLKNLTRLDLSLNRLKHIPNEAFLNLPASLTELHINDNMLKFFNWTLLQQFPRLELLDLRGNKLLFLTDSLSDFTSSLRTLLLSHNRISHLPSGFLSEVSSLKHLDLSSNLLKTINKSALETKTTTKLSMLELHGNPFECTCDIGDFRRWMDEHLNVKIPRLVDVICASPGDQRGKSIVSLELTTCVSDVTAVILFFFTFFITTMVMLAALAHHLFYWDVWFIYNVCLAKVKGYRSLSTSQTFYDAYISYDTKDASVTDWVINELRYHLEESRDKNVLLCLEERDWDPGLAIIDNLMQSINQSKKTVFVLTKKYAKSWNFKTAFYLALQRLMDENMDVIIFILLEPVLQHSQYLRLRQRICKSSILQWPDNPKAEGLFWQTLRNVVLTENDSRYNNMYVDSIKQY
Experiment: HEK-Blue-hTLR8 cell inhibition assay
Format: cell-based
Settings: R848 3 µM, 16 h, OD 620 nm, read-out: TLR8 IC50
Description: HEK-Blue-hTLR7/8/9 cell inhibition assay
1. HEK-Blue-hTLR7/8 cells (1 × 10^4 cells/well) and HEK-Blue-hTLR9 cells (1.5 × 10^4 cells/well) were seeded in a 384-well cell culture plate, with a volume of 30 µL per well. The plate was incubated at 37°C in a 5% CO2 incubator for 4 h. 2. The compound was prepared with DMSO and diluted in DMEM medium to 10 concentrations (1:3 dilution), with final concentrations of 10000, 3333.3, 1111.1, 370.4, 123.5, 41.2, 13.7, 4.6, 1.5, and 0.5 nM; R848 was prepared with DMSO and diluted in DMEM medium, with final concentrations of 0.8 µM (HEK-Blue-hTLR7) and 3 µM (HEK-Blue-hTLR8); ODN2006 was prepared with endotoxin-free water and diluted in DMEM medium, with a final concentration of 1 µM. 3. Cells treated with DMSO were used as the blank control group, while cells treated solely with Resiquimod (R848) were used as the positive control group for HEK-Blue-hTLR7/8, and cells treated solely with ODN2006 were used as the positive control group for HEK-Blue-hTLR9. Cells treated with the test compound together with R848 or ODN2006 were used as the test group. Two parallel wells were set for each group and were placed at 37°C in a 5% CO2 incubator for incubation. 4. After being incubated for 4 h, the 384-well plate of HEK-Blue-hTLR7/8 was taken out from the incubator, and R848 alone or both R848 and the diluted compound were separately added into each well. The plate was placed at 37°C in a 5% CO2 incubator for incubation for 16 h; the 384-well plate of HEK-Blue-hTLR9 was taken out from the incubator, and ODN2006 alone or both ODN2006 and the diluted compound were added separately to each well. The plate was incubated at 37°C in a 5% CO2 incubator for 16 h. 5. After being incubated for 16 h, the 384-well plate was removed from the incubator and centrifuged at 1000 rpm for 1 minute. The optical density value of each well at 620 nm was measured using a multifunctional microplate reader. 6. The cell inhibition rate was calculated as (1-(OD620 test group-OD620 blank group)/(OD620 positive group-OD620 blank group))×100%, and the half maximal inhibitory concentration (IC50) was calculated through curve fitting. Table 1: Activity of the compounds of the present disclosure in HEK-Blue-hTLR7/8/9 cellular assays

| Compound | IC50 [nM] |
| --- | --- |
| CN1CCN(c2nnc([C@]34CN(c5ccc(C#N)c6ncccc56)C[C@@]3(C(F)(F)F)C4)o2)CC1 [Compound 1, 5-((1S,5R)-1-(5-(4-methylpiperazin-1-yl)-1,3,4-oxadiazol-2-yl)-5-(trifluoromethyl)-3-azabicyclo[3.1.0]hexan-3-yl)quinoline-8-carbonitrile] | < 100 |
| Cc1cc(N2CC3(c4nnc(C5CCN(C)CC5)o4)C[C@]3(C(F)(F)F)C2)c2cnn(C)c2n1 (stereo partly drawn) [Compound 2, 2-((5R)-3-(1,6-dimethyl-1H-pyrazolo[3,4-b]pyridin-4-yl)-5-(trifluoromethyl)-3-azabicyclo[3.1.0]hexan-1-yl)-5-(1-methylpiperidin-4-yl)-1,3,4-oxadiazole] | > 1000 |
| FC(F)(F)c1ccc(N2C[C@]3(c4nnc(C5(F)CCNCC5)o4)C[C@]3(C(F)(F)F)C2)c2cccnc12 [Compound 3, 2-(4-fluoropiperidin-4-yl)-5-((1S,5R)-5-(trifluoromethyl)-3-(8-(trifluoromethyl)quinolin-5-yl)-3-azabicyclo[3.1.0]hexan-1-yl)-1,3,4-oxadiazole] | < 100 |
| CN1CC(c2nnc([C@]34CN(c5ccc(C(F)(F)F)c6ncccc56)C[C@@]3(C(F)(F)F)C4)o2)C1 [Compound 4, 2-(1-methylazetidin-3-yl)-5-((1S,5R)-5-(trifluoromethyl)-3-(8-(trifluoromethyl)quinolin-5-yl)-3-azabicyclo[3.1.0]hexan-1-yl)-1,3,4-oxadiazole] | < 100 |
| CN1CCC(c2nnc([C@]34CN(c5ccc(C#N)c6ncccc56)C[C@@]3(C(F)(F)F)C4)n2C)CC1 [Compound 5, 5-((1S,5R)-1-(4-methyl-5-(1-methylpiperidin-4-yl)-4H-1,2,4-triazol-3-yl)-5-(trifluoromethyl)-3-azabicyclo[3.1.0]hexan-3-yl)quinoline-8-carbonitrile] | > 1000 |
| CN1CCC(Nc2nnc([C@]34CN(c5ccc(C#N)c6ncccc56)C[C@@]3(C(F)(F)F)C4)o2)CC1 [Compound 6, 5-((1S,5R)-1-(5-((1-methylpiperidin-4-yl)amino)-1,3,4-oxadiazol-2-yl)-5-(trifluoromethyl)-3-azabicyclo[3.1.0]hexan-3-yl)quinoline-8-carbonitrile] | < 100 |
| N#Cc1ccc(N2C[C@]3(c4nnc(N)o4)C[C@]3(C(F)(F)F)C2)c2cccnc12 [Compound 7, 5-((1S,5R)-1-(5-amino-1,3,4-oxadiazol-2-yl)-5-(trifluoromethyl)-3-azabicyclo[3.1.0]hexan-3-yl)quinoline-8-carbonitrile] | < 100 |
| CN1CCC(C)(c2nnc([C@]34CN(c5ccc(C#N)c6ncccc56)C[C@@]3(C(F)(F)F)C4)o2)CC1 [Compound 8, 5-((1S,5R)-1-(5-(1,4-dimethylpiperidin-4-yl)-1,3,4-oxadiazol-2-yl)-5-(trifluoromethyl)-3-azabicyclo[3.1.0]hexan-3-yl)quinoline-8-carbonitrile] | < 100 |
| CN1CCC(c2nnc([C@]34CN(c5ccc(C#N)c6ncccc56)C[C@@]3(C(F)(F)F)C4)[nH]2)CC1 [Compound 9, 5-((1S,5R)-1-(5-(1-methylpiperidin-4-yl)-4H-1,2,4-triazol-3-yl)-5-(trifluoromethyl)-3-azabicyclo[3.1.0]hexan-3-yl)quinoline-8-carbonitrile] | < 100 |
| CN1[C@@H]2CC[C@H]1C[C@H](c1nnc([C@]34CN(c5ccc(C#N)c6ncccc56)C[C@@]3(C(F)(F)F)C4)o1)C2 [Compound 11, 5-((1S,5R)-1-(5-((1R,3S,5S)-8-methyl-8-azabicyclo[3.2.1]octan-3-yl)-1,3,4-oxadiazol-2-yl)-5-(trifluoromethyl)-3-azabicyclo[3.1.0]hexan-3-yl)quinoline-8-carbonitrile] | < 100 |
| N#Cc1ccc(N2C[C@]3(c4nnc(C5CCOCC5)o4)C[C@]3(C(F)(F)F)C2)c2cccnc12 [Compound 12, 5-((1S,5R)-1-(5-(tetrahydro-2H-pyran-4-yl)-1,3,4-oxadiazol-2-yl)-5-(trifluoromethyl)-3-azabicyclo[3.1.0]hexan-3-yl)quinoline-8-carbonitrile] | < 100 |
| CN1CC2(CCC(c3nnc([C@]45CN(c6ccc(C#N)c7ncccc67)C[C@@]4(C(F)(F)F)C5)o3)CC2)C1 [Compound 13, 5-((1S,5R)-1-(5-(2-methyl-2-azaspiro[3.5]nonan-7-yl)-1,3,4-oxadiazol-2-yl)-5-(trifluoromethyl)-3-azabicyclo[3.1.0]hexan-3-yl)quinoline-8-carbonitrile] | < 100 |
| CN1CC2CC1CC2c1nnc([C@]23CN(c4ccc(C#N)c5ncccc45)C[C@@]2(C(F)(F)F)C3)o1 (stereo partly drawn) [Compound 14, 5-((1S,5R)-1-(5-(2-methyl-2-azabicyclo[2.2.1]heptan-5-yl)-1,3,4-oxadiazol-2-yl)-5-(trifluoromethyl)-3-azabicyclo[3.1.0]hexan-3-yl)quinoline-8-carbonitrile] | < 100 |
| CN1CCC(Oc2nnc([C@]34CN(c5ccc(C#N)c6ncccc56)C[C@@]3(C(F)(F)F)C4)o2)CC1 [Compound 15, 5-((1S,5R)-1-(5-((1-methylpiperidin-4-yl)oxy)-1,3,4-oxadiazol-2-yl)-5-(trifluoromethyl)-3-azabicyclo[3.1.0]hexan-3-yl)quinoline-8-carbonitrile] | < 100 |
| N#Cc1ccc(N2C[C@]3(c4nnc(C5CCN(CC(N)=O)CC5)o4)C[C@]3(C(F)(F)F)C2)c2cccnc12 [Compound 17, 2-(4-(5-((1S,5R)-3-(8-cyanoquinolin-5-yl)-5-(trifluoromethyl)-3-azabicyclo[3.1.0]hexan-1-yl)-1,3,4-oxadiazol-2-yl)piperidin-1-yl)acetamide] | < 100 |
| N#Cc1ccc(N2C[C@]3(c4nnc(C5CC6(CNC6)C5)o4)C[C@]3(C(F)(F)F)C2)c2cccnc12 [Compound 18, 5-((1S,5R)-1-(5-(2-azaspiro[3.3]heptan-6-yl)-1,3,4-oxadiazol-2-yl)-5-(trifluoromethyl)-3-azabicyclo[3.1.0]hexan-3-yl)quinoline-8-carbonitrile] | < 100 |
| CN1CC2(CC(c3nnc([C@]45CN(c6ccc(C#N)c7ncccc67)C[C@@]4(C(F)(F)F)C5)o3)C2)C1 [Compound 19, 5-((1S,5R)-1-(5-(2-methyl-2-azaspiro[3.3]heptan-6-yl)-1,3,4-oxadiazol-2-yl)-5-(trifluoromethyl)-3-azabicyclo[3.1.0]hexan-3-yl)quinoline-8-carbonitrile] | < 100 |
| N#Cc1ccc(N2C[C@]3(c4nnc([C@H]5CC[C@H](N)CC5)o4)C[C@]3(C(F)(F)F)C2)c2cccnc12 [Compound 20, 5-((1S,5R)-1-(5-((1R,4S)-4-aminocyclohexyl)-1,3,4-oxadiazol-2-yl)-5-(trifluoromethyl)-3-azabicyclo[3.1.0]hexan-3-yl)quinoline-8-carbonitrile] | < 100 |

Reference: patent publication EP4806891A1 (Kangbaida (Sichuan) Biotechnology Co., Ltd., priority 2023, dated 2025)
